Data as given in paper PMC4038399, “Experimental validation of [sequence]^comb virtual ligand screening results for eight proteins yields novel nanomolar and micromolar binders” (Journal of Cheminformatics, 2014).
In brackets after ≈: the same amount, converted by molar mass. Like-named read-outs stand apart in the source and are kept apart here.

Experiments:
[1] = molecular target: T1, 1000006: catalytic domain of protein tyrosine phosphatase (2G59) (Homo sapiens, UniProt Q16827); assay: Thermal shift (thermal melt) assay, Sypro orange; type: binding, H. sapiens; conditions: for Q (quality score): ratio ΔFmelt/ΔFtotal
T1 construct: the catalytic domain of PTP from H. sapiens (PDB ID: 2G59) (1000006); New York structural genomics consortium (gift)
T1 sequence (Q16827 938-1195 limits assumed): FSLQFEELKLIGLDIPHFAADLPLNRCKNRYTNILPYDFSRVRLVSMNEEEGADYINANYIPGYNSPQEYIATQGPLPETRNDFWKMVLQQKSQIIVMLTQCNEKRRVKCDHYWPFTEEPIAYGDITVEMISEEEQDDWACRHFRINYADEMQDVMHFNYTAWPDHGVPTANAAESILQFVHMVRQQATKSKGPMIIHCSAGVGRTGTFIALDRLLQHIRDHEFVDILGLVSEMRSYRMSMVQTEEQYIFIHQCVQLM
Protocol: (§1) High throughput thermal shift assays were carried out following established guidelines (Additional file 1: Table S1). Protein melting curves were obtained from samples aliquoted in 96-well plates using a RealPlex quantitative PCR instrument from Eppendorf (Eppendorf, NY, USA), with Sypro orange dye from Invitrogen as the fluorescent probe. A uniform final concentration of 5 X (supplied as a 5000 X stock solution) was used in all experiments. The dye was excited at 465 nm and emission recorded at 580 nm using the instrument’s filters. A heating ramp of 1°C/min from 25°C to 74°C was used, and one data point acquired for each degree increment. For standardization, different buffers and pH were checked. Thereafter, 100 mM HEPES pH 7.3 and 150 mM NaCl were used in all unfolding experiments. The volume of each reaction was 20 μl, and appropriate dye and protein controls were included. All experiments were done with a minimum of two replicates, with the mean value considered for further analysis. Several drugs/small molecules interact with Sypro orange and lead to aberrant signal enhancements. An additional control to rule out drug-dye interaction was carried out with all the constituents kept constant except for the protein of interest. The protein/protein-drug curves were reported after subtracting the respective dye alone/drug-dye curves.
(§2) Each melting curve was assigned a quality score (Q), the ratio of the melting-associated increase in fluorescence (ΔFmelt) to the total fluorescence range (ΔFtotal). Q = 1 is a high-quality curve, while Q = 0 indicates no thermal transition. Though an arbitrary Q value cutoff was not applied to judge curve quality, the curves were manually curated with Q values reported. […] These were ignored (see Table 1).
(§3) Subsequent to standardization, (see SI Methods), the validity of the top 1% of […]^comb’s predictions on the test set of eight diverse proteins was examined. To be conservative, we focused only on those protein/ligand pairs showing single sigmoidal thermal transition curves. The fit to Boltzmann’s equation (Eq. 1) was employed to estimate the melting temperature from the observed intensity, I.
(§4) (4) I=Imin+Imax-Imin/1+e^Tm-T/a
(§5) Imin and Imax are the minimum and maximum intensities; a denotes the slope of the curve at the transition midpoint temperate, Tm. To estimate thermodynamic parameters, both van’t Hoff and Gibbs-Helmholtz analyses were done. To estimate the approximate ligand-binding affinity at Tm, Eq. (2) from reference was used with slight modifications; ΔCp is ignored.
(§6) (5) KLTm=exp-ΔH/R1/Tm-1/To/L
(§7) KL(Tm) is the ligand association constant and [L] is the free ligand concentration at Tm ([LTm] ~ [L]total, when [L]total > > the total concentration of protein. KD is the inverse of KL(Tm).
(§8) Thermal unfolding of the eight benchmark proteins was carried out in a 20 μl reaction mix with 100 mM HEPES pH 7.3, 150 mM NaCl, 5 X Sypro orange dye, 10 μM protein and 1 mM of all the predicted ligands.

[2] = molecular target: T2, 1000001: Carboxy-terminus phosphatase domain of protein tyrosine phosphatase (2NV5) (Mus musculus, UniProt Q64487); assay: Thermal shift (thermal melt) assay, Sypro orange; type: binding, M. musculus; parameters: key to Q (quality score): Q = ΔFmelt/ΔFtotal; 1 = high-quality curve, 0 = no transition; conditions: for Q (quality score): ratio ΔFmelt/ΔFtotal
T2 construct: The C-terminal phosphatase domain from R. norvegicus (PDB ID: 2NV5) (1000001); New York structural genomics consortium (gift)
T2 sequence (Q64487 1331-1621): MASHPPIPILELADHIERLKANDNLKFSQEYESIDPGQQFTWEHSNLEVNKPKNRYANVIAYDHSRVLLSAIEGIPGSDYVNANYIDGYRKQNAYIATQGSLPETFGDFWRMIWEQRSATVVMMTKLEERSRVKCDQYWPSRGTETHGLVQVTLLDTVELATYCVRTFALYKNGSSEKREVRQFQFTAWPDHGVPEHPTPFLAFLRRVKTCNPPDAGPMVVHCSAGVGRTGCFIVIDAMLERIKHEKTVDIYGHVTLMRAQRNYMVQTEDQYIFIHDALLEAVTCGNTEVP
Protocol: as §1, §2, §3, §4, §5, §6, §7, §8

[3] = molecular target: E. coli dihydrofolate reductase (DHFR) (Escherichia coli, UniProt P0ABQ4); assay: biochemical; type: binding; conditions: for Q (quality score): ratio ΔFmelt/ΔFtotal of the melting curve; for ΔTm: thermal shift, in °C (unit assumed)
Protocol: as §1, with “The dye was excited at 465 nm and emission recorded at 580 nm using the instrument’s filters. A heating ramp of 1°C/min from 25°C to 74°C was used, and one data point acquired for each degree increment.” left out
Each melting curve was assigned a quality score (Q), the ratio of the melting-associated increase in fluorescence (ΔFmelt) to the total fluorescence range (ΔFtotal). Q = 1 is a high-quality curve, while Q = 0 indicates no thermal transition. Though an arbitrary Q value cutoff was not applied to judge curve quality, the curves were manually curated with Q values reported.
as §3, §4, §5, §6, §7, §8

[4] = system: HCT-116 colon carcinoma cell line; assay: Cytotoxic assay on cancer cell line; type: cell-based
Protocol: Antimicrobial and anti-cancer tests were performed as in [80].

[5] = Table S4, protein 1000006, computed from the thermal shifts obtained, read-out: KD (Approx)
[6] = Table S4, protein 1000006, in °C (unit assumed)
[7] = Table S4, protein 1000001, computed from the thermal shifts obtained, read-out: KD (Approx)
[8] = Table S4, protein 1000001, in °C (unit assumed)
[9] = Table S6, 1000001, known binders of 1000001, in °C (unit assumed)
[10] = Table S6, known binders of 1000001 tested on 1000006, in °C (unit assumed)
[11] = Table S3, computed from the thermal shifts obtained, read-out: KD (Approx)
[12] = approximate, computed from the thermal shift, read-out: KD
[13] = inhibitory concentration for 50% growth inhibition

Chain of E. coli dihydrofolate reductase (DHFR) (P0ABQ4 whole entry): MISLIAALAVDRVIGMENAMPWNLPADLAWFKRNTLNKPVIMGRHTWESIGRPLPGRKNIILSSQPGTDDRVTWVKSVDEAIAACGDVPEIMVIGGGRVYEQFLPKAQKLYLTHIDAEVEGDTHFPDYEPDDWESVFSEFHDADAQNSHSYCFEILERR

Row | SMILES | Kd [2, 7] | ΔTm [2, 8] | Q (quality score) ([2]; Table S4, protein 1000001) | ΔTm [2, 9] | ΔTm [1, 10] | Kd [3, 11] | Q (quality score) ([3]; Table S3) | further results
1 | Nc1cc(-c2ccccc2)ccc1O [NSC 7950] |  |  |  |  |  |  |  | Kd [1, 5]: ~271000 nM; ΔTm [1, 6]: 1.22; Q (quality score) ([1]; Table S4, protein 1000006): 0.3
2 | Cc1ccc(N=Nc2ccc(N)cc2C)c(S(N)(=O)=O)c1 [NSC 45527] | ~567 nM | 11.7 | 0.04 | 11.79 | 5.48 |  |  | 
3 | O=C(Nc1ccc(Oc2ccc(NC(=O)Nc3ccc([N+](=O)[O-])cc3)cc2)cc1)Nc1ccc([N+](=O)[O-])cc1 [NSC 80735] |  |  |  |  |  | ~1710 nM | 0.3 | ΔTm ([3]; Table S3): 18.16; Kd [3, 12]: 1700 nM; HCT-116 (IC-50) ([4]; Table S3): 10.9; IC50 against HCT-116 ([4]; as worded): 10.9 µg/mL (≈ 20.6 µM)
4 | O=S(=O)(O)c1ccc(N=Nc2ccccc2)cc1 [NSC 1847] | ~43800 nM | 4.1 | 0.5 | 4.23 | 0 |  |  | 
5 | C#CCC(Cc1cnc2nc(N)nc(N)c2n1)c1ccc(C(=O)N[C@@H](CCC(=O)O)C(=O)O)cc1 (some centres unmarked) [NSC 754230, pralatrexate, reference compound] |  |  |  |  |  | ~499 nM | 0.1 | IC50 ([4]; Homo sapiens, HCT-116, inhibitory concentration for 50% growth inhibition, read-out: HCT-116 (IC-50)): < 0.031 µg/mL
6 | Nc1nc2[nH]cc(CCc3ccc(C(=O)N[C@@H](CCC(=O)O)C(=O)O)cc3)c2c(=O)[nH]1 [NSC 698037, pemetrexed, reference compound] |  |  |  |  |  |  | 1.3 | 
7 | O=C(Nc1ccc(C(=O)O)c(O)c1)c1ccccc1 [NSC 159686] |  |  |  |  |  |  | 0.6 | Kd [3]: ~12700 nM
8 | COc1cc(NCc2ccccc2O)c2ncccc2c1 [NSC 130801] |  |  |  |  |  | ~75000 nM | 1.1 | ΔTm ([3]; Table S3): 5.84
9 | O=C(O)c1cc(O)ccc1N=Nc1ccccc1 [NSC 106863] | ~6470 nM | 7.4 | 1.1 | 7.34 | 0 |  |  | HCT-116 (IC-50) [4, 13]: 14.5 µg/mL
10 | O=C(O)Cc1ccc(N=Nc2c(O)c(C(=O)O)cc3ccccc23)cc1 [NSC 156563] | ~1320 nM | 10.2 | 0.004 | 10.66 | 5.36 |  |  | 
11 | C1=Cc2ccccc2Nc2ccccc21 [NSC 123458] |  |  |  |  |  | ~5640 nM | 0.6 | ΔTm ([3]; Table S3): 14.17
12 | CC(C)=C(c1ccc(Cl)cc1)c1c(N)ncnc1N [NSC 157522] |  |  |  |  |  | ~19500 nM | 0.4 | ΔTm ([3]; Table S3): 10.13
13 | CC(=O)c1cc(O)c2ccccc2c1O [NSC 111552] | ~709 nM | 11.3 | 0.007 |  | 29.52 |  |  | HCT-116 (IC-50) [4, 13]: 2.2 µg/mL
14 | COc1cc(N=Nc2ccccc2C(=O)O)ccc1O [NSC 153172] | ~2190 nM | 9.3 | 0.1 | 9.70 | 5.48 |  |  | 
15 | NS(=O)(=O)c1ccc(N=Nc2c(O)c(C(=O)O)cc3ccccc23)cc1 [NSC 134137] | ~406 nM |  | 0.01 | 11.33 | 1.36 |  |  | Kd ([2]; approximate, computed from the thermal shift, listed as 134137, read-out: KD): 406 nM; Kd ([2]; approximate, computed from the thermal shift, listed as NSC134137, read-out: KD): ~406 nM; ΔTm ([2]; thermal shift, 1 mM ligand, 10 μM protein, listed as 134137): 12.30 °C; ΔTm ([2]; thermal shift, 1 mM ligand, 10 μM protein, listed as NSC134137): ~ 12 °C
16 | N/C(CC(=O)Nc1cc(C(F)(F)F)ccc1Cl)=N\O [NSC 379536] |  |  |  |  |  | ~28900 nM | 0.3 | ΔTm ([3]; Table S3): 8.86
17 | Nc1cc([N+](=O)[O-])ccc1Nc1ccc(O)cc1 [NSC 92794] |  |  |  |  |  |  |  | HCT-116 (IC-50) ([4]; inhibitory concentration for 50% growth inhibition, listed as 92794): 9.78 µg/mL; HCT-116 (IC-50) ([4]; inhibitory concentration for 50% growth inhibition, listed as NSC92794): 9.8 µg/mL; Kd [1, 5]: ~162000 nM; ΔTm [1, 6]: 2.26; Q (quality score) ([1]; Table S4, protein 1000006): 0.004; Kd [1, 12]: 162000 nM
18 | COc1cc(C(=O)C(=O)c2ccc(O)c(OC)c2)ccc1O [NSC 16722] |  |  |  |  |  |  |  | Kd [1, 5]: ~107000 nM; ΔTm [1, 6]: 3.09; Q (quality score) ([1]; Table S4, protein 1000006): 0.4
19 | Nc1ccc(Oc2ccc(N)c([N+](=O)[O-])c2)cc1[N+](=O)[O-] [NSC 133351] |  |  |  |  |  |  |  | Kd [1, 5]: ~168 nM; Q (quality score) ([1]; Table S4, protein 1000006): 0.1; Kd ([1]; approximate, computed from the thermal shift, listed as 133351, read-out: KD): 168 nM; Kd ([1]; approximate, computed from the thermal shift, listed as NSC133351, read-out: KD): ~168 nM; ΔTm ([1]; thermal shift, 1 mM ligand, 10 μM protein): 16.76 °C
